Our source for the IC50 values is patent publication US9273057B2 (Bristol-Myers Squibb Company, priority 2012, dated 2016).

SMILES strings stand for the structures.

CK2A1 (CK2α/β), sequence (P68400 whole entry, species assumed): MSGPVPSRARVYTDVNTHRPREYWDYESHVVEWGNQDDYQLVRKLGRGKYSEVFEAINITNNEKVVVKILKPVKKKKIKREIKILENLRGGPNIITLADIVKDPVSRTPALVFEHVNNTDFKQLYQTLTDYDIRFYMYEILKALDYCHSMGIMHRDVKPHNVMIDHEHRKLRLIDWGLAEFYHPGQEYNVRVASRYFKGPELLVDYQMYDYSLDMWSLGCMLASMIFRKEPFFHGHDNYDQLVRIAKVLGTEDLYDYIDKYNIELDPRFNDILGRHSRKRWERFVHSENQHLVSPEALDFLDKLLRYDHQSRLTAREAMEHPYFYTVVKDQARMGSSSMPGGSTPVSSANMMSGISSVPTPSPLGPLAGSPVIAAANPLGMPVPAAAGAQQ
CK2A1 (CK2α/β), sequence (P67870 whole entry partner, species assumed): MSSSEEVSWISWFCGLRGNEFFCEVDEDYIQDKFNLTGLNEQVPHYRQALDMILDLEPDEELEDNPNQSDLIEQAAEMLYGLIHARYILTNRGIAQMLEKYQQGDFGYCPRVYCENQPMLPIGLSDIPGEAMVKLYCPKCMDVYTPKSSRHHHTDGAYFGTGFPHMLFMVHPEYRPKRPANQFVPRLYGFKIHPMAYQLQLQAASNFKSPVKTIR

This assay concerns the target CK2A1 (CK2α/β) (Homo sapiens, UniProt P68400). Description: CK2 kinase assay, CK2A1 (CK2α/β). In kind it is biochemical. To be noted: Table A; read-out: CK2A1 (CK2α/β) (IC50).
Protocol: For example, in vitro protein kinase assays may be conducted with a relevant purified protein kinase and an appropriate synthetic substrate to determine the inhibitory activity of the compounds. […] Reaction mixtures were incubated at 30° C. for 1 hour, and reaction products were captured by binding to phosphocellulose (P81) filter plates. Incorporation of radioactive phosphate into the peptide substrate was determined by liquid scintillation counting.
The inhibitory activity of the instant compounds may also be measured by recombinant CK2 holoenzyme kinase assays. The assays were performed in U-bottom 384-well plates. […] The reaction was initiated by the combination of bacterially expressed, CK2 α/β or CK2 holoenzyme with substrates and test compounds. The reaction was incubated at room temperature for 60 minutes and terminated by adding 30 μl of 35 mM EDTA to each sample. The reaction mixture was analyzed on the Caliper LABCHIP® 3000 (Caliper, Hopkinton, Mass.) by electrophoretic separation of the fluorescent substrate and phosphorylated product. […] Compounds were dissolved at 10 mM in dimethylsulfoxide (DMSO) and evaluated at eleven concentrations. IC50 values were derived by non-linear regression analysis.
For the compound `COCCN(C)CC1CN(c2cc(C#N)cc(Nc3nc(NC4CC4)c4ncc(C#N)n4n3)c2Cl)CCO1` (centres unmarked) [Example 702, 2-{[2-chloro-5-cyano-3-(2-{[(2-methoxyethyl)(methyl)amino]methyl}morpholin-4-yl)phenyl]amino}-4-(cyclopropylamino)imidazo[2,1-f][1,2,4]triazine-7-carbonitrile], the IC50 stood at 2.48 nM.

Consider `CCNC(=O)OCC1CN(c2cc(C#N)cc(Nc3nc(NC4CC4)c4ncc(C#N)n4n3)c2Cl)CCN1C` (centres unmarked) [Example 703, [4-(2-chloro-5-cyano-3-{[7-cyano-4-(cyclopropylamino)imidazo[2,1-f][1,2,4]triazin-2-yl]amino}phenyl)-1-methylpiperazin-2-yl]methyl N-ethylcarbamate], for which the IC50 is 1.82 nM.

For `COC[C@H](NC[C@H]1CN(c2cc(C#N)cc(Nc3nc(NC4CC4)c4ncc(C#N)n4n3)c2Cl)CCO1)C1CC1` [Example 704, 2-({2-chloro-5-cyano-3-[(2S)-2-({[(1R)-1-cyclopropyl-2-methoxyethyl]amino}methyl)morpholin-4-yl]phenyl}amino)-4-(cyclopropylamino)imidazo[2,1-f][1,2,4]triazine-7-carbonitrile], the IC50 was determined as 1.4 nM.

As to `N#Cc1cc(Nc2nc(NC3CC3)c3ncc(C#N)n3n2)c(Cl)c(N2CCOC(CN3CC(F)C3)C2)c1` (centres unmarked) [Example 705, 2-[(2-chloro-5-cyano-3-{2-[(3-fluoroazetidin-1-yl)methyl]morpholin-4-yl}phenyl)amino]-4-(cyclopropylamino)imidazo[2,1-f][1,2,4]triazine-7-carbonitrile], the IC50 was 0.89 nM.

Consider `COC[C@H](NC[C@H]1CN(c2cc(C#N)cc(Nc3nc(NC4CC4)c4ncc(C#N)n4n3)c2Cl)CCN1C)C1CC1` [Example 706, 2-({2-chloro-5-cyano-3-[(3S)-3-({[(1R)-1-cyclopropyl-2-methoxyethyl]amino}methyl)-4-methylpiperazin-1-yl]phenyl}amino)-4-(cyclopropylamino)imidazo[2,1-f][1,2,4]triazine-7-carbonitrile], for which the IC50 turned out to be 1.76 nM.

In the case of `COCCN(C)CC1CN(c2cc(C#N)cc(Nc3nc(NC4CC4)c4ncc(C#N)n4n3)c2Cl)CCN1C` (centres unmarked) [Example 707, 2-{[2-chloro-5-cyano-3-(3-{[(2-methoxyethyl)(methyl)amino]methyl}-4-methylpiperazin-1-yl)phenyl]amino}-4-(cyclopropylamino)imidazo[2,1-f][1,2,4]triazine-7-carbonitrile], the IC50 came to 1.35 nM.

On to `CN1CCN(c2cc(C#N)cc(Nc3nc(NC4CC4)c4ncc(C#N)n4n3)c2Cl)CC1CN1CC(F)C1` (centres unmarked) [Example 708, 2-[(2-chloro-5-cyano-3-{3-[(3-fluoroazetidin-1-yl)methyl]-4-methylpiperazin-1-yl}phenyl)amino]-4-(cyclopropylamino)imidazo[2,1-f][1,2,4]triazine-7-carbonitrile], for which the IC50 was 0.52 nM.

As to `CC(C)(O)CNCC1CN(c2cc(C#N)cc(Nc3nc(NC4CC4)c4ncc(C#N)n4n3)c2Cl)CCO1` (centres unmarked) [Example 709, 2-{[2-chloro-5-cyano-3-(2-{[(2-hydroxy-2-methylpropyl)amino]methyl}morpholin-4-yl)phenyl]amino}-4-(cyclopropylamino)imidazo[2,1-f][1,2,4]triazine-7-carbonitrile], the IC50 was 2.94 nM.

With `COC(=O)NCC1CN(c2cc(C#N)cc(Nc3nc(NC4CC4)c4ncc(C#N)n4n3)c2Cl)CCO1` (centres unmarked) [Example 710, methyl N-{[4-(2-chloro-5-cyano-3-{[7-cyano-4-(cyclopropylamino)imidazo[2,1-f][1,2,4]triazin-2-yl]amino}phenyl)morpholin-2-yl]methyl}carbamate], the IC50 was determined as 0.75 nM.

As to `CCNC(=O)NCC1CN(c2cc(C#N)cc(Nc3nc(NC4CC4)c4ncc(C#N)n4n3)c2Cl)CCO1` (centres unmarked) [Example 711, 1-{[4-(2-chloro-5-cyano-3-{[7-cyano-4-(cyclopropylamino)imidazo[2,1-f][1,2,4]triazin-2-yl]amino}phenyl)morpholin-2-yl]methyl}-3-ethylurea], the IC50 amounted to 2.64 nM.

Turning to `CC(=O)NCC1CN(c2cc(C#N)cc(Nc3nc(NC4CC4)c4ncc(C#N)n4n3)c2Cl)CCO1` (centres unmarked) [Example 712, N-{[4-(2-chloro-5-cyano-3-{[7-cyano-4-(cyclopropylamino)imidazo[2,1-f][1,2,4]triazin-2-yl]amino}phenyl)morpholin-2-yl]methyl}acetamide], the IC50 was determined as 1.18 nM.

For `COC(=O)NCC1CN(c2cc(C#N)cc(Nc3nc(NC4CC4)c4ncc(C#N)n4n3)c2Cl)CCN1C` (centres unmarked) [Example 713, methyl N-{[4-(2-chloro-5-cyano-3-{[7-cyano-4-(cyclopropylamino)imidazo[2,1-f][1,2,4]triazin-2-yl]amino}phenyl)-1-methylpiperazin-2-yl]methyl}carbamate], the IC50 came to 5.48 nM.

In the case of `CN1CC(N(C)C2CCN(c3cc(C#N)cc(Nc4nc(NC5CC5)c5ncc(C#N)n5n4)c3Cl)CC2)CC1=O` (centres unmarked) [Example 714, 2-((2-Chloro-5-cyano-3-(4-(methyl(1-methyl-5-oxopyrrolidin-3-yl)amino)piperidin-1-yl)phenyl)amino)-4-(cyclopropylamino)imidazo[2,1-f][1,2,4]triazine-7-carbonitrile], the IC50 was 44.6 nM.

Consider `CCN(C1CCN(c2cc(C#N)cc(Nc3nc(NC4CC4)c4ncc(C#N)n4n3)c2Cl)CC1)C1CC(=O)N(C)C1` (centres unmarked) [Example 715, 2-[(2-chloro-5-cyano-3-{4-[ethyl(1-methyl-5-oxopyrrolidin-3-yl)amino]piperidin-1-yl}phenyl)amino]-4-(cyclopropylamino)imidazo [2,1-f][1,2,4]triazine-7-carbonitrile], for which the IC50 worked out at 10.8 nM.

In the case of `CC(C)N(C1CCN(c2cc(C#N)cc(Nc3nc(NC4CC4)c4ncc(C#N)n4n3)c2Cl)CC1)C1CC(=O)N(C)C1` (centres unmarked) [Example 716, 2-[(2-chloro-5-cyano-3-{4-[(1-methyl-5-oxopyrrolidin-3-yl)(propan-2-yl)amino]piperidin-1-yl}phenyl)amino]-4-(cyclopropylamino)imidazo [2,1-f][1,2,4]triazine-7-carbonitrile], the IC50 is 32.6 nM.

In the case of `Cc1nn(C)c(C)c1-c1cc(C#N)cc(Nc2nc(NC3CC3)c3ncc(C#N)n3n2)c1Cl` [Example 717, 2-((2-chloro-5-cyano-3-(1,3,5-trimethyl-1H-pyrazol-4-yl)phenyl)amino)-4-(cyclopropylamino)imidazo[2,1-f][1,2,4]triazine-7-carbonitrile], the IC50 came out at 1.38 nM.

`N#Cc1cc(Nc2nc(NC3CC3)c3ncc(C#N)n3n2)c(Cl)c(-c2cnn(CCN3CCOCC3)c2)c1` [Example 718, 2-[(2-chloro-5-cyano-3-{1-[2-(morpholin-4-yl)ethyl]-1H-pyrazol-4-yl}phenyl)amino]-4-(cyclopropylamino)imidazo [2,1-f][1,2,4]triazine-7-carbonitrile]: the IC50 was 0.68 nM.

`Cc1nn(CCN(C)C)c(C)c1-c1cc(C#N)cc(Nc2nc(NC3CC3)c3ncc(C#N)n3n2)c1Cl` [Example 719, 2-[(2-chloro-5-cyano-3-{1-[2-(dimethylamino)ethyl]-3,5-dimethyl-1H-pyrazol-4-yl}phenyl)amino]-4-(cyclopropylamino)imidazo [2,1-f][1,2,4]triazine-7-carbonitrile]: the IC50 amounted to 7.41 nM.

In the case of `CC(CCc1cc(Cl)c(Nc2nc(NC3CC3)c3ncc(C#N)n3n2)cc1C#N)N1CCOCC1` (centres unmarked) [Example 720, 2-((2-chloro-5-cyano-4-(3-morpholinobutyl)phenyl)amino)-4-(cyclopropylamino)imidazo[2,1-f][1,2,4]triazine-7-carbonitrile], the IC50 was determined as 2.48 nM.

With `CC(Cc1cc(Cl)c(Nc2nc(NC3CC3)c3ncc(C#N)n3n2)cc1C#N)CN1CCOCC1` (centres unmarked) [Example 721, 2-({2-chloro-5-cyano-4-[2-(morpholin-4-ylmethyl)propyl]phenyl}amino)-4-(cyclopropylamino)imidazo [2,1-f][1,2,4]triazine-7-carbonitrile], the IC50 amounted to 1.35 nM.

As to `CC(O)CCc1cc(Cl)c(Nc2nc(NC3CC3)c3ncc(C#N)n3n2)cc1C#N` (centres unmarked) [Example 722, 2-{[2-chloro-5-cyano-4-(3-hydroxybutyl)phenyl]amino}-4-(cyclopropylamino)imidazo [2,1-f][1,2,4]triazine-7-carbonitrile], the IC50 turned out to be 0.16 nM.

Regarding `CN1CCN(C(CO)CCc2cc(C#N)cc(Nc3nc(NC4CC4)c4ncc(C#N)n4n3)c2Cl)CC1` (centres unmarked) [Example 723, 2-({2-chloro-5-cyano-3-[4-hydroxy-3-(4-methylpiperazin-1-yl)butyl]phenyl}amino)-4-(cyclopropylamino)imidazo [2,1-f][1,2,4]triazine-7-carbonitrile], the IC50 amounted to 1.92 nM.

On to `CC(CCc1cc(Cl)c(Nc2nc(NC3CC3)c3ncc(C#N)n3n2)cc1C#N)N1CC(O)C1` (centres unmarked) [Example 724, 2-({2-chloro-5-cyano-4-[3-(3-hydroxyazetidin-1-yl)butyl]phenyl}amino)-4-(cyclopropylamino)imidazo [2,1-f][1,2,4]triazine-7-carbonitrile], for which the IC50 came out at 1.51 nM.

Consider `N#Cc1cc(Nc2nc(NC3CC3)c3ncc(C#N)n3n2)c(Cl)c([C@H]2CCC[C@@H](N3CC(F)C3)C2)c1` [Example 726, 2-({2-chloro-5-cyano-3-[(1S,3R)-3-(3-fluoroazetidin-1-yl)cyclohexyl]phenyl}amino)-4-(cyclopropylamino)imidazo [2,1-f][1,2,4]triazine-7-carbonitrile], for which the IC50 amounted to 2.34 nM.

Consider `CN[C@@H]1CCC[C@H](c2cc(C#N)cc(Nc3nc(NC4CC4)c4ncc(C#N)n4n3)c2Cl)C1` [Example 727, 2-({2-chloro-5-cyano-3-[(1S,3R)-3-(methylamino)cyclohexyl]phenyl}amino)-4-(cyclopropylamino)imidazo [2,1-f][1,2,4]triazine-7-carbonitrile], for which the IC50 is 1.23 nM.

With `N#Cc1cc(Nc2nc(NC3CC3)c3ncc(C#N)n3n2)c(Cl)c([C@H]2CCC[C@H](NC[C@H]3CCCO3)C2)c1` [Example 728, 2-({2-chloro-5-cyano-3-[(1S,3S)-3-{[(2R)-oxolan-2-ylmethyl]amino}cyclohexyl]phenyl}amino)-4-(cyclopropylamino)imidazo [2,1-f][1,2,4]triazine-7-carbonitrile], the IC50 came out at 1.38 nM.
